Measured values reported in ChEMBL document CHEMBL1201862, “PubChem BioAssay data set” (2004).
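Method: 48-hour compound exposure of cells in 96-well plates, five concentrations, linear interpolation of endpoints. GI50: concentration for 50% inhibition of growth.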 Calls of active or inactive are those of the source. Rule as the data show it: active = GI50 up to about 1.1 µM and inactive = higher.

How the values were obtained:
Experiment in all cases: NCI-60 cell line screen, 48 h
SK-MEL-5 = system: SK-MEL-5
SK-MEL-2 = system: SK-MEL-2
Malme-3M = system: Malme-3M
KM-20L2 = system: KM-20L2
OVCAR-8 = system: OVCAR-8
786-0 = system: 786-0
SF-268 = system: SF-268
CAKI-1 = system: CAKI-1
LOX IMVI = system: LOX IMVI
SK-OV-3 = system: SK-OV-3
EKVX = system: EKVX
A498 = system: A498
RXF 393 = system: RXF 393
SF-295 = system: SF-295
HCT-15 = system: HCT-15
M14 = system: M14
HT-29 = system: HT-29

Row | Structure (SMILES) | GI50 (SK-MEL-5) | GI50 (SK-MEL-2) | GI50 (Malme-3M) | GI50 (KM-20L2) | GI50 (OVCAR-8) | GI50 (786-0) | GI50 (SF-268) | GI50 (CAKI-1) | GI50 (LOX IMVI) | GI50 (SK-OV-3) | GI50 (EKVX) | GI50 (A498) | GI50 (RXF 393) | GI50 (SF-295) | GI50 (HCT-15) [µM] | GI50 (M14) | GI50 (HT-29)
1 | O=C(NOC(=O)c1ccc([N+](=O)[O-])cc1)c1ccc(Cl)cc1 | 65.2 µM (inactive) | > 100 µM (inactive) | > 100 µM (inactive) | 97.1 µM (inactive) | 98.6 µM (inactive) | 54.6 µM (inactive) | > 100 µM (inactive) | 39.6 µM (inactive) | 6.87 µM (inactive) | > 100 µM (inactive) | > 100 µM (inactive) | > 100 µM (inactive) | 87.1 µM (inactive) | > 100 µM (inactive) | 35.7 | > 100 µM (inactive) | > 100 µM (inactive)
2 | c1ccc2c(OCCSCCCCCCCCCCSCCOc3cccc4ccccc34)cccc2c1 | > 100 µM (inactive) | > 100 µM (inactive) | > 100 µM (inactive) | > 100 µM (inactive) | > 100 µM (inactive) | > 100 µM (inactive) | > 100 µM (inactive) | > 100 µM (inactive) | > 100 µM (inactive) | > 100 µM (inactive) | > 100 µM (inactive) | > 100 µM (inactive) | > 100 µM (inactive) | > 100 µM (inactive) | > 100 |  | > 100 µM (inactive)
3 | C/C=C/C1(NS(=O)(=O)c2ccc(C)cc2)CCC(C(C)(C)C)CC1 (stereo not given) | 17.5 µM (inactive) | 17.3 µM (inactive) | 22.2 µM (inactive) | 20.1 µM (inactive) | 36.1 µM (inactive) | 19 µM (inactive) | 29.6 µM (inactive) | 28.8 µM (inactive) |  | 27.4 µM (inactive) | 23 µM (inactive) | 24 µM (inactive) | 24.3 µM (inactive) | 26.2 µM (inactive) | 28.6 | 17.3 µM (inactive) | 18 µM (inactive)
4 | Clc1ccc(-c2c(C3=NCCN3)nnn2-c2ccc(Cl)cc2)cc1 | 16.8 µM (inactive) | 13.1 µM (inactive) | 19.1 µM (inactive) | 15.7 µM (inactive) | 58.3 µM (inactive) | 21.8 µM (inactive) | 32.2 µM (inactive) | 33.5 µM (inactive) | 39.4 µM (inactive) | 29.6 µM (inactive) | 59.8 µM (inactive) | 17.4 µM (inactive) | 16.7 µM (inactive) | 19.5 µM (inactive) | 30.1 | 17.1 µM (inactive) | 13.9 µM (inactive)
5 | CC#CC(OCC)(OCC)OCC | > 100 µM (inactive) | > 100 µM (inactive) | > 100 µM (inactive) | > 100 µM (inactive) | > 100 µM (inactive) | > 100 µM (inactive) | > 100 µM (inactive) | > 100 µM (inactive) | 18.9 µM (inactive) | > 100 µM (inactive) | > 100 µM (inactive) | > 100 µM (inactive) | > 100 µM (inactive) | > 100 µM (inactive) | 39.1 | > 100 µM (inactive) | > 100 µM (inactive)
6 | Cc1c2nc3ccccc3sc-2cc(=O)c1C | 34.8 µM (inactive) | 14.4 µM (inactive) | 46.5 µM (inactive) | > 72.6 µM (inactive) | 49.7 µM (inactive) | > 100 µM (inactive) | 25.6 µM (inactive) | 55 µM (inactive) | 29.8 µM (inactive) | > 100 µM (inactive) | > 80.4 µM (inactive) | > 100 µM (inactive) | 90.8 µM (inactive) | 61.2 µM (inactive) | 12.9 | 55.3 µM (inactive) | > 77.3 µM (inactive)
